Assay results reported in patent US20230012368A1 (Hoffmann-La Roche Inc., priority 2018, published 2023).
Counter-ions that a name gives are not always drawn. Like-named read-outs stand apart in the source and are kept apart here.

Tested on: Acinetobacter baumannii ATCC 17978
Assay: Antimicrobial susceptibility testing: 90% growth inhibitory concentration (IC90) determination
Type: cell-based
Settings: 90% growth inhibitory concentration, Acinetobacter baumannii ATCC17978, Iso-Sensitest broth, OD 600 nm over 16h, read-out: ATCC17978 IC90
Outline: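 Compounds serially twofold diluted (e.g. 50 to 0.097 μM final) in Iso-Sensitest broth, inoculated at ~5×10^(5) CFU/ml, incubated at 35±2° C. OD600 read every 20 minutes over 16h. IC90 taken as concentration inhibiting 90% of growth during logarithmic phase.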

[1] = Acinetobacter baumannii, ATCC17978, 16 h

| IC90 [1] [nM] | Structure (SMILES) | IC90 [nM] |
| --- | --- | --- |
| 480 | CCc1cc(Nc2nccn3c(-c4ccc(OC)c(F)c4F)cnc23)ccc1C(=O)NCC1CCCN1 (stereo not shown) [Example 527, 4-((3-(2,3-difluoro-4-methoxyphenyl)imidazo[1,2-a]pyrazin-8-yl)amino)-2-ethyl-N-(pyrrolidin-2-ylmethyl)benzamide hydrochloride] | – |
| 310 | COc1ccc(-c2cnc3c(Nc4ccc(C(=O)N[C@@H](C)CNC(=N)C(C)C)c(Cl)c4)nccn23)c(F)c1F [Example 500, 2-chloro-4-[[3-(2,3-difluoro-4-methoxyphenyl)imidazo[1,2-a]pyrazin-8-yl]amino]-#N!- [(2#S!)-1-(2-methylpropanimidoylamino)propan-2-yl]benzamide] | – |
| 470 | CCc1cc(Nc2nccn3c(-c4ccc(Oc5ccc(OC)cn5)c(F)c4F)cnc23)ccc1C(=O)NCCNC(=O)CCN [Example 448, N-[2-(3-aminopropanoylamino)ethyl]-4-[[3-[2,3-difluoro-4-[(5-methoxy-2-pyridyl)oxy]phenyl]imidazo [1,2-a]pyrazin-8-yl]amino]-2-ethyl-benzamide; formic acid] | – |
| 630 | CCc1cc(Nc2nccn3c(-c4ccc(Oc5ccc(OC)cn5)c(F)c4F)cnc23)ccc1C(=O)NCCNC(=O)[C@H](N)CCCNC(=N)N [Example 447, N-[2-[[(2R)-2-amino-5-guanidino-pentanoyl]amino]ethyl]-4-[[3-[2,3-difluoro-4-[(5-methoxy-2-pyridyl)oxy]phenyl]imidazo [1,2-a]pyrazin-8-yl]amino]-2-ethyl-benzamide; formic acid] | – |
| 570 | CCc1cc(Nc2nccn3c(-c4ccc(OC(F)F)c(F)c4F)cnc23)ccc1C(=O)NC(C)CCN (stereo not shown) [Example 402, N-(4-aminobutan-2-yl)-4-((3-(4-(difluoromethoxy)-2,3-difluorophenyl)imidazo[1,2-a]pyrazin-8-yl)amino)-2-ethylbenzamide hydrochloride] | – |
| 34 | COc1ccc(-c2cnc3c(Nc4ccc(C(=O)NCCCCCCN)c(Cl)c4)nccn23)c(F)c1F [Example 495, N-(6-aminohexyl)-2-chloro-4-((3-(2,3-difluoro-4-methoxyphenyl)imidazo[1,2-a]pyrazin-8-yl)amino)benzamide hydrochloride] | – |
| 320 | CCc1cc(Nc2nccn3c(-c4ccc(OC)c(F)c4F)cnc23)ccc1C(=O)NCCNC(=O)[C@@H](N)CN [Example 400, N-[2-[[(2S)-2,3-diaminopropanoyl]amino]eth-yl]-4-[[3-(2,3-difluoro-4-methoxy-phenyl)imidazo[1,2-a]pyrazin-8-yl]amino]-2-ethyl-benzamide; formic acid] | – |
| 850 | CCc1cc(Nc2nccn3c(-c4ccc(Oc5ccccn5)c(F)c4F)cnc23)ccc1C(=O)NCCNC(=O)[C@@H](N)CCCNC(=N)N [Example 417, N-[2-[[(2S)-2-amino-5-guanidino-pentanoyl]amino]ethyl]-4-[[3-[2,3-difluoro-4-(2-pyridyloxy)phenyl]imidazo [1,2-a]pyrazin-8-yl]amino]-2-ethyl-benzamide; formic acid] | – |
| 720 | CCc1cc(Nc2nccn3c(-c4ccc(Oc5nccc(C)n5)c(F)c4F)cnc23)ccc1C(=O)N[C@@H](C)CNC(=O)[C@@H](N)CCNC(=N)N [Example 455, N-((S)-1-((S)-2-amino-4-guanidinobutanamido)propan-2-yl)-4-((3-(2,3-difluoro-4-((4-methylpyrimidin-2-yl)oxy)phenyl)imidazo[1,2-a]pyrazin-8-yl)amino)-2-ethylbenzamide formiate 1:2] | – |
| 660 | CCc1cc(Nc2nccn3c(-c4ccc(Oc5ccccn5)c(F)c4F)cnc23)ccc1C(=O)N(C)C [Example 471, 4-[[3-[2,3-difluoro-4-(2-pyridyloxy)phenyl]imidazo [1,2-a]pyrazin-8-yl]amino]-2-ethyl-N,N-dimethyl-benzamide] | – |
| 320 | CCc1cc(Nc2nccn3c(-c4ccc(OC)c(F)c4F)cnc23)ccc1C(=O)NCC1CCN(C(C)(C)C(=O)O)CC1 [Example 562, 2-(4-((4-((3-(2,3-difluoro-4-methoxyphenyl)imidazo[1,2-a]pyrazin-8-yl)amino)-2-ethylbenzamido)methyl)piper-idin-1-yl)-2-methylpropanoic acid compound with formic acid] | – |

The next lines start with the compound.

| Structure (SMILES) | IC90 [1] [nM] | IC90 [nM] |
| --- | --- | --- |
| COc1ccc(-c2cnc3c(Nc4ccc(C(=O)N(C)CCN5CCNCC5)c(C)c4)nccn23)c(F)c1F [Example 61, 4-((3-(2,3-difluoro-4-methoxyphenyl)imidazo [1,2-a]pyrazin-8-yl)amino)-N,2-dimethyl-N-(2-(piperazin-1-yl)ethyl)benzamide] | 190 | – |
| CCc1cc(Nc2nccn3c(-c4ccc(OC(F)F)c(F)c4F)cnc23)ccc1C(=O)NC(C)(C)CCN [Example 100, N-(4-amino-2-methylbutan-2-yl)-4-((3-(4-(difluoromethoxy)-2,3-difluorophenyl)imidazo [1,2-a]pyrazin-8-yl)amino)-2-ethylbenzamide hydrochloride] | 350 | – |
| COc1ccc(-c2cnc3c(Nc4ccc(C(=O)NCCN5CCNCC5)c(C)c4)nccn23)c(F)c1F [Example 56, 4-((3-(2,3-difluoro-4-methoxyphenyl)imidazo [1,2-a]pyrazin-8-yl)amino)-2-methyl-N-(2-(piperazin-1-yl)ethyl)benzamide hydrochloride] | – | 250 |
| CCc1cc(Nc2nccn3c(-c4ccc(OCC#N)c(F)c4F)cnc23)ccc1C(=O)NCCNC(=O)[C@@H](N)CN [Example 145, 4-[[3-[4-(cyanomethoxy)-2,3-difluoro-phenyl]imidazo[1,2-a]pyrazin-8-yl]amino]-N-[2-[[(2S)-2,3-diaminopropanoyl]amino]ethyl]-2-ethyl-benzamide formate] | 150 | – |
| CCc1cc(Nc2nccn3c(-c4ccc(OC)c(F)c4F)cnc23)ccc1C(=O)NCCNC(=O)NCCN [Example 339, N-[2-(2-aminoethylcarbamoylamino)ethyl]-4-[[3-(2,3-difluoro-4-methoxyphenyl)imidazo[1,2-a]pyrazin-8-yl]amino]-2-ethylbenzamide] | 560 | – |
| CCc1cc(Nc2nccn3c(-c4ccc(OC)c(F)c4F)cnc23)ccc1C(=O)NCCNC(=O)[C@@H](N)CCN [Example 399, N-[2-[[(2S)-2,4-diaminobutanoyl]amino]ethyl]-4-[[3-(2,3-difluoro-4-methoxy-phenyl)imidazo[1,2-a]pyrazin-8-yl]amino]-2-ethyl-benzamide; formic acid] | 380 | – |
| COc1ccc(-c2cnc3c(Nc4ccc(C(=O)NCC5CCN(C)CC5)c(C)c4)nccn23)cc1 [Example 52, 4-[[3-(4-methoxyphenyl)imidazo [1,2-a]pyrazin-8-yl]amino]-2-methyl-N-[(1-methylpiperidin-4-yl)methyl]benzamide] | 750 | – |
| Cc1cc(Nc2nccn3c(-c4ccc(OC(F)F)cc4)cnc23)ccc1C(=O)N(C)CCC1CCN(CCC#N)CC1 [Example 309, N-[2-[1-(2-cyanoethyl)piperidin-4-yl]ethyl]-4-[[3-[4-(difluoromethoxy)phenyl]im-idazo[1,2-a]pyrazin-8-yl]amino]-N,2-dimethylbenzamide] | 690 | – |
| COc1ccc(-c2cnc3c(Nc4ccc(C(=O)N(C)Cc5ccncc5)c(C)c4)nccn23)cc1F [Example 73, 4-((3-(3-fluoro-4-methoxyphenyl)imidazo [1,2-a]pyrazin-8-yl)amino)-N,2-dimethyl-N-(pyridin-4-ylmethyl)benzamide] | 140 | – |
| CCN(CC)C(=O)c1ccc(Nc2nccn3c(-c4ccc(OC)cc4)cnc23)cc1 [Example 227, N,N-diethyl-4-[[3-(4-methoxyphenyl)imidazo[1,2-a]pyrazin-8-yl]amino]benzamide] | 610 | – |
| COc1ccc(-c2cnc3c(Nc4ccc(C(=O)NCCCN)c(C)c4)nccn23)c(F)c1F [Example 64, N-(3-aminopropyl)-4-((3-(2,3-difluoro-4-methoxyphenyl)imidazo [1,2-a]pyrazin-8-yl)amino)-2-methylbenzamide] | 230 | – |
| Cc1cc(Nc2nccn3c(-c4ccc(OC(F)F)cc4)cnc23)ccc1C(=O)N(C)CC(=O)N(C)CC(=O)N1CCN(C)CC1 [Example 171, 4-[[3-[4-(difluoromethoxy)phenyl]im-idazo[1,2-a]pyrazin-8-yl]amino]-N,2-dimethyl-N-[2-[methyl-[2-(4-methylpiperazin-1-yl)-2-oxoethyl]amino]-2-oxoethyl]benzamide] | 3600 | – |
| CCc1cc(Nc2nccn3c(-c4ccc(OC)c(F)c4F)cnc23)ccc1C(=O)NCCN [Example 117, N-(2-aminoethyl)-4-((3-(2,3-difluoro-4-methoxyphenyl)imidazo[1,2-a]pyrazin-8-yl)amino)-2-ethylbenzamide dihydrochloride] | – | 560 |
| COc1ccc(-c2cnc3c(Nc4ccc(C(=O)N(C)CCCCC(=O)N5CCNCC5)c(C)c4)nccn23)cc1F [Example 273, 4-[[3-(3-fluoro-4-methoxyphenyl)imidazo[1,2-a]pyrazin-8-yl]amino]-N,2-dimethyl-N-(5-oxo-5-piperazin-1-ylpentyl)benzamide] | 180 | – |
| Cc1cc(Nc2nccn3c(-c4ccc(Cl)c(F)c4F)cnc23)ccc1C(=O)NCC1CCN(C)CC1 [Example 240, 4-[[3-(4-chloro-2,3-difluorophenyl)imidazo[1,2-a]pyrazin-8-yl]amino]-2-methyl-N-[(1-methylpiperidin-4-yl)methyl]benzamide] | 1100 | – |
| CCc1cc(Nc2nccn3c(-c4ccc(Cl)c(F)c4F)cnc23)ccc1C(=O)NCCCN1CCC1 [Example 386, N-[3-(azetidin-1-yl)propyl]-4-[[3-(4-chloro-2,3-difluorophenyl)imidazo[1,2-a]pyrazin-8-yl]amino]-2-ethylbenzamide] | 950 | – |
| COc1ccc(-c2cnc3c(Nc4ccc(C(=O)NCC5CCN(C(=N)N)CC5)c(C)c4)nccn23)c(F)c1F [Example 292, N-[(1-carbamimidoylpiperidin-4-yl)methyl]-4-[[3-(2,3-difluoro-4-methoxyphenyl)imidazo[1,2-a]pyrazin-8-yl]amino]-2-methylbenzamide] | 110 | – |
